Where a name gives a salt, the structure may show the parent alone.
Assays:
[1] = tested on: H9C2 cardiomyocytes; type: cell-based, rat
[2] = tested on: H9C2 cardiomyocytes; conditions: Dox only, 24 h, CCK-8

N[C@@H](CS)C(=O)O [Cys, cysteine]
protection of H9C2 viability against Dox (control studies) [1]: no protective effect

COc1cccc2c1C(=O)c1c(O)c3c(c(O)c1C2=O)C[C@@](O)(C(=O)CO)C[C@@H]3O[C@H]1C[C@H](N)[C@H](O)[C@H](C)O1 [Dox, Doxorubicin hydrochloride]
concentration inducing cytotoxicity in H9C2 cardiomyocytes [2]: ≥ 2.5 µM

C1COCCN1.COc1ccc(P(=S)(S)N2CCOCC2)cc1 (stereo not drawn) [GYY4137]
protection of H9C2 viability against Dox (control studies) [1]: no effect on viability

— PMC6225339 (Journal of the American Chemical Society, 2018)
